# Source: PubChem BioAssay AID1902 (Broad Institute, 2009)
# The source made the active and inactive calls.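 Rule for the calls: active = EC50 no more than a set limit of log units above the highest dose; inactive = the rest.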
# Biological target: S. pyogenes SKKanGAS, kanamycin survival, BacTiterGlo, 6 h
# Experiment: S. pyogenes SKKanGAS kanamycin growth inhibitors – SKKanGAS strain, luminescence, dose confirmation, streptokinase promoter inhibitor project, dose response (AID 1902);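 note: lower survival reflects blocked streptokinase promoter driving kanamycin resistance gene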
row,SMILES,EC50
1,COc1ccc(/C=C2\SC(=N)N(c3nccs3)C2=O)cc1OC,838 nM
2,O=c1[nH]c(=O)n([C@H]2C[C@H](O)[C@@H](CO)O2)cc1F,689 nM
3,CN(C)c1ccc(O)c2c1CC1CC3[C@@H](N(C)C)C(=O)C(C(N)=O)=C(O)[C@]3(O)C(=O)C1=C2O (stereo partly drawn),95 nM
4,O=C(CSc1ccc(-c2ccc(Cl)cc2)nn1)NC1CCCC1,> 15000 nM (inactive)
5,CCCCCCCOC(=O)C[N+](C)(C)CCOC1CC2CCC1(C)C2(C)C (stereo not drawn),4520 nM
6,COc1ccc(C(=O)NNC(=S)NC(=O)c2ccccc2)cc1,995 nM
7,O=C1Nc2cc(C(=O)N3CCN(c4ccccn4)CC3)ccc2S/C1=C\c1ccccc1,3360 nM
8,CCCOC(=O)c1ccc(Oc2c(-c3ccc(OC)cc3O)n[nH]c2C)cc1,13500 nM
9,Cc1cc([N+](=O)[O-])cc(/C=N/n2c(C)nc3ccccc3c2=O)c1O,4070 nM
10,CCOc1cccc(/C=N/NC(=S)Nc2ccccc2[N+](=O)[O-])c1O,95 nM
11,COc1ccc(C(=O)NC(=S)Nc2ccc(N3CCOCC3)c(Cl)c2)cc1[N+](=O)[O-],1970 nM
12,COC(=O)c1ccc(CSc2n[nH]c(=S)s2)o1,3250 nM
13,CSc1cccc(NC(=O)OC2CCCCCCCCCCC2)c1,4100 nM
14,O=C(Nc1ccc(Br)c(C(F)(F)F)c1)c1ccc(C(F)(F)F)cc1,1860 nM
15,COc1ccc(C(=O)NNC(=S)NC(=O)/C=C/c2cccs2)cc1,598 nM
16,CC/C(=C\C1CCCCC1)C(NP(=O)(c1ccccc1)c1ccccc1)c1ccccc1 (stereo not drawn),1140 nM
17,Cc1ccnc(NC(=S)N2CCN(c3cccc(C(F)(F)F)c3)CC2)c1,1640 nM
18,Cc1cc(/C=C2\C(=N)N3N=C(S(C)(=O)=O)SC3=NC2=O)c(C)n1Cc1ccccc1,4770 nM
19,CCn1cc(CN2CCC(C(=O)Nc3ccc(Oc4cccnc4)cc3)CC2)cn1,> 15000 nM (inactive)
20,O=C(c1cc2ccccc2cc1O)N1CCN(c2ccccc2O)CC1,9870 nM
21,Cc1noc(C)c1CSCC(=O)Nc1nc2ccc(Oc3ccccc3)cc2s1,4850 nM
22,Cc1cc(N2CCN(c3ccccc3Cl)CC2)n2cc(-c3ccccc3)nc2n1,6630 nM
23,Cc1nc(NC(=O)c2ccc(Cl)cc2)sc1-c1csc(Nc2cccc(F)c2)n1,2690 nM
24,O=C(OCc1ccc(COC(=O)c2ccc(O)cc2)cc1)c1ccc(O)cc1,2210 nM
25,S=c1nc(SCc2ccccc2)[nH]c2ccccc12,3180 nM
26,CNC[C@H](CC1CCCCC1)NC[C@H](Cc1ccccc1)NCCC12CC3CC(CC(C3)C1)C2,2940 nM
27,O=C(CSc1ccc2ccccc2n1)N/N=C/c1ccccc1O,2120 nM

row,SMILES,EC50
1,C=CC1=C(C(=O)O)N2C(=O)[C@@H](NC(=O)/C(=N/OCC(=O)O)c3csc(N)n3)[C@H]2SC1,< 60 nM
2,O=c1c2cn[nH]c2nc(SCc2c(F)cccc2F)n1-c1ccc(Cl)cc1,11100 nM
3,Nc1ccc(C#Cc2ccc3oc4ccccc4c(=O)c3c2)cc1,1390 nM
4,O=C(CNc1ccccc1)N/N=C/c1c(O)ccc2ccccc12,740 nM
5,COc1cnc(-c2ccccn2)nc1Sc1ccc(Cl)cc1,4960 nM
6,CCC(C)c1ccc(C2C3=C(Nc4nc(N)[nH]c(=O)c42)c2ccccc2C3=O)cc1 (stereo not drawn),3710 nM
7,Cc1ccc(NC(=O)c2nc[nH]c2C(=O)N[C@@H](C)c2ccccc2)cc1,1130 nM
8,Cc1ccc(-n2c(-c3ccc(Br)cc3)c[n+]3c2CCc2ccc4cccnc4c2-3)cc1,3600 nM
9,O=C(CCN1C(=O)/C(=C/c2ccccc2Cl)SC1=S)NNC(=O)c1ccccc1O,3340 nM
10,O=[N+]([O-])/C=C/c1c(OCc2ccccc2)ccc2ccccc12,1630 nM
11,COc1ccccc1N1CCN(C(=O)/C=C/c2c(Cl)nc3ccccn23)CC1,1600 nM
12,O=c1c2cc(N3CCOCC3)ccc2[nH]c(=S)n1CCc1ccccc1,482 nM
13,CC1CCN(C(=O)N2c3ccccc3Sc3ccccc32)CC1,9990 nM
14,CCn1nc(NC(=O)c2ccncc2)c2cc3cc(C)ccc3nc21,2660 nM
15,Cc1ccc(Cc2cnc(N3C(=N)SC(C)C3=O)s2)cc1 (stereo not drawn),298 nM
16,Cc1ccc(NS(=O)(=O)c2ccc(Cl)c(NC(=S)NC(=O)C3CCCCC3)c2)cc1Cl,1130 nM
17,O=[N+]([O-])c1cc(Cl)c(O)c2ncccc12,782 nM
18,CC(C)Cc1csc(NC(=O)c2ccc(Br)cc2)c1C(=O)O,1570 nM
19,COCCCn1c(N)c(C(=O)Nc2ccccc2)c2nc3ccccc3nc21,11800 nM
20,Cc1cccc(OCCCCc2c(C)n[nH]c2C)c1C,4740 nM
21,O=C1CC(N(CCc2ccccc2)C(=S)Nc2ccccc2)C(=O)N1c1ccc(Br)cc1 (stereo not drawn),3070 nM
22,Oc1ccccc1/C=N/Nc1nc2ccccc2o1,2420 nM
23,CC1(C)CC(=O)C2=C(C1)N=C1c3ccccc3C(=O)C1C2c1ccc(Cl)cc1 (stereo not drawn),8160 nM
24,Cc1cccc(CS(=O)(=O)c2nnc([C@H](Cc3ccccc3)NC(=O)OC(C)(C)C)o2)c1,3880 nM
25,COC(=O)C1=NN(C(=O)c2cccc(Br)c2)C(O)(c2ccc(Cl)cc2)C1 (stereo not drawn),1300 nM
26,O=[N+]([O-])c1cc(Cl)cc(/C=N/Nc2nc3ccccc3s2)c1O,1540 nM
